# According to paper PMC9188596, “Structural basis of resistance to herbicides that target acetohydroxyacid synthase” (Nature Communications, 2022):
# Several values for one entry are separate records, joined by “and”; a condition that tells them apart may be missing. Equal values may be shown once. Entries after “also recorded” stand apart in the source; their conditions may differ. Read-outs that look alike come from different tables or passages of the source.
# What was measured:
# AtAHAS P197T mutant [1] = target: T1, AtAHAS P197T mutant (Arabidopsis thaliana, UniProt P17597, P197T); experiment: biochemical
# Method: (§1) Standard assays were performed using a continuous spectrophotometric method measuring the disappearance of pyruvate. The standard buffer contained 50 mM potassium phosphate, pH 7.2, 1 mM ThDP, 10 mM MgCl2, and 10 µM FAD. The concentration of pyruvate was in the range 100–160 mM, as described in the text, methods, or figure legends.
# (§2) Supplementary Figure 6. Measurement of the Ki values for WT AtAHAS and the mutants.
# (§3) The error bars represent the standard error of the mean of two independent replicates. [I] =
# (§4) inhibitor concentration. Source data are provided with this paper.
# (§5) (1 picture or pasted object on this page, not shown here)
# AtAHAS P197L mutant [2] = target: T2, AtAHAS P197L mutant (Arabidopsis thaliana, UniProt P17597, P197L); experiment: biochemical
# Method: as §1, §2, §3, §4, §5
# AtAHAS W574L mutant [3] = target: T3, AtAHAS W574L mutant (Arabidopsis thaliana, UniProt P17597, W574L); experiment: biochemical; details: for increase in Ki / loss of affinity compared to WT: W574L vs WT
# Method: as §1, §2, §3, §4, §5
# AtAHAS S653T mutant [4] = target: T4, AtAHAS S653T mutant (Arabidopsis thaliana, UniProt P17597, S653T); experiment: biochemical
# Method: as §1, §2, §3, §4, §5
# AtAHAS P197T mutant [5] = target: T1, AtAHAS P197T mutant; format: biochemical; details: for k3 (rate of recovery) / kiapp (apparent rate of enzyme inactivation) / kiapp/k3 (efficiency of accumulative inhibition) / k3, single progress curve (Supplementary Figure 8) / kiapp, single progress curve (Supplementary Figure 8): P197T; for k3 (rate of recovery) / kiapp (apparent rate of enzyme inactivation): 160 mM pyruvate, 30 °C; for k3 (rate of recovery) / kiapp (apparent rate of enzyme inactivation) / kiapp/k3 (efficiency of accumulative inhibition): NAI = no accumulative inhibition detected; for k3, single progress curve (Supplementary Figure 8) / kiapp, single progress curve (Supplementary Figure 8): individual replicate of triplicate
# Method: as §1
# (§6) AtAHAS was assayed in the standard assay buffer containing 160 mM pyruvate, at 30 °C. For AtAHAS activation the progress curve corresponding to the lag-phase was fitted to Eq. (8) of Lonhienne et al.[14]. For the time dependent accumulative inhibition of AtAHAS the progress curves were fitted to Equation 9 of Lonhienne et al.[12].
# (§7) Supplementary Figure 8. Measurement of the rate constants of accumulative inhibition for WT AtAHAS and its mutants. The progress curves were fitted to the equation of accumulative inhibition (Equation 7 2). The rate constants of enzyme inactivation ( kiapp) and enzyme recovery (k3) were measured in triplicate. Source data are provided with this paper. […]
# AtAHAS P197L mutant [6] = target: T2, AtAHAS P197L mutant; format: biochemical; details: for k3 (rate of recovery) / kiapp (apparent rate of enzyme inactivation): 160 mM pyruvate, 30 °C; for k3 (rate of recovery) / kiapp (apparent rate of enzyme inactivation) / kiapp/k3 (efficiency of accumulative inhibition): NAI = no accumulative inhibition detected; for k3, single progress curve (Supplementary Figure 8) / kiapp, single progress curve (Supplementary Figure 8): individual replicate of triplicate
# Method: as §1, §6, §7
# AtAHAS W574L mutant [7] = target: T3, AtAHAS W574L mutant; format: biochemical; details: for k3 (rate of recovery) / kiapp (apparent rate of enzyme inactivation): 160 mM pyruvate, 30 °C; for k3 (rate of recovery) / kiapp (apparent rate of enzyme inactivation) / kiapp/k3 (efficiency of accumulative inhibition): NAI = no accumulative inhibition detected
# Method: as §1, §6, §7
# AtAHAS S653T mutant [8] = target: T4, AtAHAS S653T mutant; format: biochemical; details: for kiapp/k3 (efficiency of accumulative inhibition) / k3 (rate of recovery) / kiapp (apparent rate of enzyme inactivation) / k3, single progress curve (Supplementary Figure 8) / kiapp, single progress curve (Supplementary Figure 8): S653T; for k3 (rate of recovery) / kiapp (apparent rate of enzyme inactivation): 160 mM pyruvate, 30 °C, ± SEM; for k3, single progress curve (Supplementary Figure 8) / kiapp, single progress curve (Supplementary Figure 8): individual replicate of triplicate
# Method: as §1, §6, §7
# WT AtAHAS [9] = target: T5, WT AtAHAS (Arabidopsis thaliana, UniProt P17597); format: biochemical; details: for k3 (rate of recovery) / kiapp (apparent rate of enzyme inactivation): 160 mM pyruvate, 30 °C, ± SEM; for k3, single progress curve (Supplementary Figure 8) / kiapp, single progress curve (Supplementary Figure 8): individual replicate of triplicate
# Method: as §1, §6
# Supplementary Figure 8. Measurement of the rate constants of accumulative inhibition for WT AtAHAS and its mutants. The progress curves were fitted to the equation of accumulative inhibition (Equation 7 2). The rate constants of enzyme inactivation ( kiapp) and enzyme recovery (k3) were measured in triplicate. Source data are provided with this paper.
# WT AtAHAS [10] = target: T5, WT AtAHAS; details: cited from earlier work
# [11] = Ki (Supplementary Figure 6), P197T, fit of % activity remaining vs [I], two independent replicates
# [12] = Ki, P197T mutant, ± standard error of the mean
# [13] = Ki (Supplementary Figure 6), P197L, fit of % activity remaining vs [I], two independent replicates
# [14] = Ki, P197L mutant, ± standard error of the mean
# [15] = Ki, W574L mutant, ± standard error of the mean
# [16] = Ki, S653T mutant, ± standard error of the mean
# [17] = ± standard error of the mean, ref Garcia et al.[13]
# [18] = individual replicate of triplicate
smiles,measurement,setting,value
"CC(C)C1(C)N=C(c2nc3ccccc3cc2C(=O)O)NC1=O (stereo not shown) [IQ, imazaquin]",Ki,AtAHAS P197T mutant [1]; [11],12.4 ± 1.83 µM
same,Ki,AtAHAS P197T mutant [1]; [12],12.4 ± 1.8 µM
same,Ki,AtAHAS P197L mutant [2]; [13],13.8 ± 1.14 µM
same,Ki,AtAHAS P197L mutant [2]; [14],13.8 ± 1.1 µM
same,Ki,AtAHAS W574L mutant [3]; [15],704 ± 58.5 µM
same,increase in Ki / loss of affinity compared to WT,AtAHAS W574L mutant [3],38 fold
same,Ki,"AtAHAS S653T mutant [4]; Ki (Supplementary Figure 6), S653T, fit of % activity remaining vs [I], two independent replicates",240 ± 25.5 µM
same,Ki,AtAHAS S653T mutant [4]; [16],240 ± 26 µM
same,increase in Ki compared to WT,AtAHAS S653T mutant [4]; S653T vs WT,more than 10 fold
same,k3 (rate of recovery),AtAHAS P197T mutant [5],<1e-12 min⁻¹
same,kiapp (apparent rate of enzyme inactivation),AtAHAS P197T mutant [5],0.27 ± 0.012 min⁻¹
same,kiapp/k3 (efficiency of accumulative inhibition),AtAHAS P197T mutant [5],>10^11
same,"k3, single progress curve (Supplementary Figure 8)",AtAHAS P197T mutant [5],~ 0 min-1
same,"kiapp, single progress curve (Supplementary Figure 8)",AtAHAS P197T mutant [5],0.29 min-1 and 0.28 min-1 (2×)
same,k3 (rate of recovery),AtAHAS P197L mutant [6],<1e-12 min⁻¹
same,kiapp (apparent rate of enzyme inactivation),AtAHAS P197L mutant [6],0.26 ± 0.008 min⁻¹
same,kiapp/k3 (efficiency of accumulative inhibition),AtAHAS P197L mutant [6],>10^11
same,"k3, single progress curve (Supplementary Figure 8)",AtAHAS P197L mutant [6],~ 0 min-1
same,"kiapp, single progress curve (Supplementary Figure 8)",AtAHAS P197L mutant [6],0.25 min-1 (2×) and 0.26 min-1
same,k3 (rate of recovery),AtAHAS W574L mutant [7],NAI
same,kiapp (apparent rate of enzyme inactivation),AtAHAS W574L mutant [7],NAI
same,kiapp/k3 (efficiency of accumulative inhibition),AtAHAS W574L mutant [7],NAI
same,kiapp/k3 (efficiency of accumulative inhibition),AtAHAS S653T mutant [8],>10^11
same,k3 (rate of recovery),AtAHAS S653T mutant [8],<1e-12 min⁻¹
same,kiapp (apparent rate of enzyme inactivation),AtAHAS S653T mutant [8],0.37 ± 0.017 min⁻¹
same,"k3, single progress curve (Supplementary Figure 8)",AtAHAS S653T mutant [8],~ 0 min-1
same,"kiapp, single progress curve (Supplementary Figure 8)",AtAHAS S653T mutant [8],0.34 min⁻¹ and 0.38 min⁻¹ and 0.39 min⁻¹
same,accumulative inhibition (in words),WT AtAHAS [9],irreversible
same,kiapp/k3 (efficiency of accumulative inhibition),WT AtAHAS [9],>10^11
same,k3 (rate of recovery),WT AtAHAS [9],<1e-12 min⁻¹
same,kiapp (apparent rate of enzyme inactivation),WT AtAHAS [9],0.86 ± 0.03 min⁻¹
same,"k3, single progress curve (Supplementary Figure 8)",WT AtAHAS [9],~ 0 min-1
same,"kiapp, single progress curve (Supplementary Figure 8)",WT AtAHAS [9],0.86 min⁻¹ and 0.92 min⁻¹ and 0.83 min⁻¹
same,Ki,WT AtAHAS [10],18 µM
same,Ki,WT AtAHAS [10]; [17],18.5 ± 2 µM
"COc1cc(OC)nc(Oc2cccc(Oc3nc(OC)cc(OC)n3)c2C(=O)O)n1 [BS, bispyribac]",Ki,AtAHAS P197T mutant [1]; [11],0.106 ± 0.00483 µM
same,Ki,AtAHAS P197T mutant [1]; [12],0.106 ± 0.0048 µM
same,increase in Ki / loss of affinity compared to WT,AtAHAS P197T mutant [1]; P197T vs WT,around three-fold
same,loss of affinity,AtAHAS P197T mutant [1]; P197T vs WT,~ 50%
same,Ki,AtAHAS P197L mutant [2]; [13],0.115 ± 0.0134 µM
same,Ki,AtAHAS P197L mutant [2]; [14],0.115 ± 0.013 µM
same,loss of affinity,AtAHAS P197L mutant [2]; P197L vs WT,~ 50%
same,Ki,"AtAHAS W574L mutant [3]; Ki (Supplementary Figure 6), W574L, fit of % activity remaining vs [I], two independent replicates",6.11 ± 0.988 µM
same,Ki,AtAHAS W574L mutant [3]; [15],6.1 ± 1 µM
same,increase in Ki / loss of affinity compared to WT,AtAHAS W574L mutant [3],150 fold
same,Ki,AtAHAS S653T mutant [4]; [16],0.09 ± 0.0131 µM
same,loss of affinity,AtAHAS S653T mutant [4]; S653T vs WT,~ 50%
same,k3 (rate of recovery),AtAHAS P197T mutant [5],0.031 ± 0.004 min⁻¹
same,kiapp (apparent rate of enzyme inactivation),AtAHAS P197T mutant [5],1.14 ± 0.11 min⁻¹
same,kiapp/k3 (efficiency of accumulative inhibition),AtAHAS P197T mutant [5],37
same,"k3, single progress curve (Supplementary Figure 8)",AtAHAS P197T mutant [5],0.035 min-1 (2×) and 0.023 min-1
same,"kiapp, single progress curve (Supplementary Figure 8)",AtAHAS P197T mutant [5],1.09 min⁻¹ and 0.98 min⁻¹ and 1.34 min⁻¹
same,increase in efficiency of accumulative inhibition compared to WT,AtAHAS P197T mutant [5]; P197 mutant vs WT (kiapp/k3),two-fold
same,k3 (rate of recovery),AtAHAS P197L mutant [6],0.037 ± 0.003 min⁻¹
same,kiapp (apparent rate of enzyme inactivation),AtAHAS P197L mutant [6],1.15 ± 0.09 min⁻¹
same,kiapp/k3 (efficiency of accumulative inhibition),AtAHAS P197L mutant [6],31
same,"k3, single progress curve (Supplementary Figure 8)",AtAHAS P197L mutant [6],0.043 min⁻¹ and 0.036 min⁻¹ and 0.032 min⁻¹
same,"kiapp, single progress curve (Supplementary Figure 8)",AtAHAS P197L mutant [6],1.33 min⁻¹ and 1.1 min⁻¹ and 1.03 min⁻¹
same,accumulative inhibition (in words),AtAHAS W574L mutant [7],irreversible; also recorded: still can promote accumulative inhibition
same,k3 (rate of recovery),AtAHAS W574L mutant [7],<1e-12 min⁻¹
same,kiapp (apparent rate of enzyme inactivation),AtAHAS W574L mutant [7],0.03 ± 0.006 min⁻¹
same,kiapp/k3 (efficiency of accumulative inhibition),AtAHAS W574L mutant [7],>10^11
same,"k3, single progress curve (Supplementary Figure 8)",AtAHAS W574L mutant [7]; [18],~ 0 min-1
same,"kiapp, single progress curve (Supplementary Figure 8)",AtAHAS W574L mutant [7]; [18],0.043 min⁻¹ and 0.026 min⁻¹ and 0.025 min⁻¹
same,kiapp/k3 (efficiency of accumulative inhibition),AtAHAS S653T mutant [8],39
same,efficiency of accumulative inhibition (kiapp/k3) compared to WT (in words),AtAHAS S653T mutant [8]; S653T vs WT,increased
same,k3 (rate of recovery),AtAHAS S653T mutant [8],0.017 ± 0.001 min⁻¹
same,kiapp (apparent rate of enzyme inactivation),AtAHAS S653T mutant [8],0.66 ± 0.04 min⁻¹
same,"k3, single progress curve (Supplementary Figure 8)",AtAHAS S653T mutant [8],0.018 min⁻¹ and 0.019 min⁻¹ and 0.015 min⁻¹
same,"kiapp, single progress curve (Supplementary Figure 8)",AtAHAS S653T mutant [8],0.59 min⁻¹ and 0.71 min⁻¹ and 0.69 min⁻¹
same,kiapp/k3 (efficiency of accumulative inhibition),WT AtAHAS [9],18
same,k3 (rate of recovery),WT AtAHAS [9],0.018 ± 0.002 min⁻¹
same,kiapp (apparent rate of enzyme inactivation),WT AtAHAS [9],0.32 ± 0.03 min⁻¹
same,"k3, single progress curve (Supplementary Figure 8)",WT AtAHAS [9],0.022 min⁻¹ and 0.018 min⁻¹ and 0.014 min⁻¹
same,"kiapp, single progress curve (Supplementary Figure 8)",WT AtAHAS [9],0.38 min⁻¹ and 0.28 min⁻¹ and 0.3 min⁻¹
same,Ki,WT AtAHAS [10]; [17],0.041 ± 0.006 µM
